# Data published in PubChem BioAssay AID602480 (National Center for Advancing Translational Sciences (NCATS), 2012).
# Tested on: aqueous solubility in PBS
# Test: qHTS Assay for Inhibitors of Bacillus subtilis Sfp phosphopantetheinyl transferase (PPTase): Aqueous Solubility in PBS
# Source text: PPTases are responsible for the activation of a variety of pathogen-associated virulence factors. Among these compounds are toxins such as mycolactone from Mycobacterium ulcerans, siderophores such as vibriobactin from Vibrio cholerae or mycobactin from Mycobacterium tuberculosis, as well as the mycolic acids which form the waxy cell wall of Mycobacteria. The biosyntheses of these natural products are considered attractive targets for drug design. After a large qHTS and several follow-up assays, a small molecule was identified and this in vitro ADME assay serves to better characterize its properties.
# This profiling assay looks at the […] of a small molecule in PBS (pH 7.4). This is an important parameter as it has significant impact on in vivo results, such as uptake, distribution, transport, and eventually bioavailability. This outcome is also of utmost importance for decisions concerning assay data and SAR strategy.
# NIH Chemical Genomics Center [NCGC]
# NIH Molecular Libraries Probe Centers Network [MLPCN]
# Assay Submitter (PI): Michale Burkart, University of California, San Diego
# 1. 8ul of reference and test compound stock solution were added to 392ul 100mM phosphate buffer (pH 7.4)
# 2. Sample tubes were shaken for 1 hr (1000 rpm) at room temperature
# 3. […]
# 5. Concentration of the supernatant was determined by LC-UV or LC-MS/MS
compound,measurement,value
COc1ccnc(NC(=S)N2CCN(c3ncc(C(F)(F)F)cc3Cl)CC2)c1,solubility,20 µM
